Data taken from paper PMC4844702, “Selective inhibition of the kinase DYRK1A by targeting its folding process” (Nature Communications, 2016).

Tests used:
Experiment in all cases: Kinase panel (Carna)
Assay type in all cases: biochemical
MARK1 = biological target: T1, MARK1 (Homo sapiens, UniProt Q9P0L2)
T1 construct: purchased Carna Biosciences
Source text: (§1) Detailed information on the assay conditions is available on the website of Carna Biosciences (http://www.carnabio.com).

MNK2 = biological target: T2, MNK2 (Homo sapiens, UniProt Q9HBH9)
T2 construct: purchased Carna Biosciences

EPHA2 = biological target: T3, EPHA2 (Homo sapiens, UniProt P29317)
T3 construct: purchased Carna Biosciences

Erk2 = biological target: T4, Erk2 (Homo sapiens, UniProt P28482)
T4 construct: purchased Carna Biosciences

MAP2K6_Cascade = biological target: T5, MAP2K6_Cascade (Homo sapiens, UniProt P52564)
T5 construct: purchased Carna Biosciences

MAP2K2_Cascade = biological target: T6, MAP2K2_Cascade (Homo sapiens, UniProt P36507)
T6 construct: purchased Carna Biosciences

ACK = biological target: T7, ACK (Homo sapiens, UniProt Q07912)
T7 construct: purchased Carna Biosciences
Source text: as §1

IRR = biological target: T8, IRR (Homo sapiens, UniProt P14616)
T8 construct: purchased Carna Biosciences
Source text: as §1

TRKB = biological target: T9, TRKB (Homo sapiens, UniProt Q16620)
T9 construct: purchased Carna Biosciences
Source text: as §1

FER = biological target: T10, FER (Homo sapiens, UniProt P16591)
T10 construct: purchased Carna Biosciences
Source text: as §1

PDGFRβ = biological target: T11, PDGFRβ (Homo sapiens, UniProt P09619)
T11 construct: purchased Carna Biosciences
Source text: as §1

PDK1 = biological target: T12, PDK1 (Homo sapiens, UniProt O15530)
T12 construct: purchased Carna Biosciences
Source text: as §1

Erk1 = biological target: T13, Erk1 (Homo sapiens, UniProt P27361)
T13 construct: purchased Carna Biosciences
Source text: as §1

EGFR = biological target: T14, EGFR (Homo sapiens, UniProt P00533)
T14 construct: purchased Carna Biosciences

FES = biological target: T15, FES (Homo sapiens, UniProt P07332)
T15 construct: purchased Carna Biosciences
Source text: as §1

SRM = biological target: T16, SRM (Homo sapiens, UniProt Q9H3Y6)
T16 construct: purchased Carna Biosciences
Source text: as §1

MAPKAPK2 = biological target: T17, MAPKAPK2 (Homo sapiens, UniProt P49137)
T17 construct: purchased Carna Biosciences

MAP2K1_Cascade = biological target: T18, MAP2K1_Cascade (Homo sapiens, UniProt Q02750)
T18 construct: purchased Carna Biosciences

PKCη = biological target: T19, PKCη (Homo sapiens, UniProt P24723)
T19 construct: purchased Carna Biosciences
Source text: as §1

CDC7/ASK = biological target: T20, CDC7/ASK (Homo sapiens, UniProt O00311)
T20 construct: purchased Carna Biosciences
Source text: as §1

PDHK2 = biological target: T21, PDHK2 (Homo sapiens, UniProt Q15119)
T21 construct: purchased Carna Biosciences
Source text: as §1

TRKC = biological target: T22, TRKC (Homo sapiens, UniProt Q16288)
T22 construct: purchased Carna Biosciences
Source text: as §1

PKCβ1 = biological target: T23, PKCβ1 (Homo sapiens, UniProt P05771)
T23 construct: purchased Carna Biosciences
Source text: as §1

FMS = biological target: T24, FMS (Homo sapiens, UniProt P07333)
T24 construct: purchased Carna Biosciences
Source text: as §1

PKCδ = biological target: T25, PKCδ (Homo sapiens, UniProt Q05655)
T25 construct: purchased Carna Biosciences
Source text: as §1

SGK = biological target: T26, SGK (Homo sapiens, UniProt O00141)
T26 construct: purchased Carna Biosciences

JAK3 = biological target: T27, JAK3 (Homo sapiens, UniProt P52333)
T27 construct: purchased Carna Biosciences
Source text: as §1

MER = biological target: T28, MER (Homo sapiens, UniProt Q12866)
T28 construct: purchased Carna Biosciences
Source text: as §1

AurA = biological target: T29, AurA (Homo sapiens, UniProt O14965)
T29 construct: purchased Carna Biosciences
Source text: as §1

CK1γ3 = biological target: T30, CK1γ3 (Homo sapiens, UniProt Q9Y6M4)
T30 construct: purchased Carna Biosciences

NEK7 = biological target: T31, NEK7 (Homo sapiens, UniProt Q8TDX7)
T31 construct: purchased Carna Biosciences

PKR = biological target: T32, PKR (Homo sapiens, UniProt P19525)
T32 construct: purchased Carna Biosciences

MOS_Cascade = biological target: T33, MOS_Cascade (Homo sapiens, UniProt P00540)
T33 construct: purchased Carna Biosciences

KDR = biological target: T34, KDR (Homo sapiens, UniProt P35968)
T34 construct: purchased Carna Biosciences
Source text: as §1

JNK1 = biological target: T35, JNK1 (Homo sapiens, UniProt P45983)
T35 construct: purchased Carna Biosciences
Source text: as §1

JNK2 = biological target: T36, JNK2 (Homo sapiens, UniProt P45984)
T36 construct: purchased Carna Biosciences

MSK1 = biological target: T37, MSK1 (Homo sapiens, UniProt O75582)
T37 construct: purchased Carna Biosciences
Source text: as §1

CaMK1α = biological target: T38, CaMK1α (Homo sapiens, UniProt Q14012)
T38 construct: purchased Carna Biosciences
Source text: as §1

MSK2 = biological target: T39, MSK2 (Homo sapiens, UniProt O75676)
T39 construct: purchased Carna Biosciences
Source text: as §1

CDK2/CycE1 = biological target: T40, CDK2/CycE1 (Homo sapiens, UniProt P24941)
T40 construct: purchased Carna Biosciences
Source text: as §1

ARG = biological target: T41, ARG (Homo sapiens, UniProt P42684)
T41 construct: purchased Carna Biosciences
Source text: as §1

MAP2K5_Cascade = biological target: T42, MAP2K5_Cascade (Homo sapiens, UniProt Q13163)
T42 construct: purchased Carna Biosciences

IKKα = biological target: T43, IKKα (Homo sapiens, UniProt O15111)
T43 construct: purchased Carna Biosciences
Source text: as §1

SIK = biological target: T44, SIK (Homo sapiens, UniProt P57059)
T44 construct: purchased Carna Biosciences

QIK = biological target: T45, QIK (Homo sapiens, UniProt Q9H0K1)
T45 construct: purchased Carna Biosciences

T15 sequence (P07332 whole entry): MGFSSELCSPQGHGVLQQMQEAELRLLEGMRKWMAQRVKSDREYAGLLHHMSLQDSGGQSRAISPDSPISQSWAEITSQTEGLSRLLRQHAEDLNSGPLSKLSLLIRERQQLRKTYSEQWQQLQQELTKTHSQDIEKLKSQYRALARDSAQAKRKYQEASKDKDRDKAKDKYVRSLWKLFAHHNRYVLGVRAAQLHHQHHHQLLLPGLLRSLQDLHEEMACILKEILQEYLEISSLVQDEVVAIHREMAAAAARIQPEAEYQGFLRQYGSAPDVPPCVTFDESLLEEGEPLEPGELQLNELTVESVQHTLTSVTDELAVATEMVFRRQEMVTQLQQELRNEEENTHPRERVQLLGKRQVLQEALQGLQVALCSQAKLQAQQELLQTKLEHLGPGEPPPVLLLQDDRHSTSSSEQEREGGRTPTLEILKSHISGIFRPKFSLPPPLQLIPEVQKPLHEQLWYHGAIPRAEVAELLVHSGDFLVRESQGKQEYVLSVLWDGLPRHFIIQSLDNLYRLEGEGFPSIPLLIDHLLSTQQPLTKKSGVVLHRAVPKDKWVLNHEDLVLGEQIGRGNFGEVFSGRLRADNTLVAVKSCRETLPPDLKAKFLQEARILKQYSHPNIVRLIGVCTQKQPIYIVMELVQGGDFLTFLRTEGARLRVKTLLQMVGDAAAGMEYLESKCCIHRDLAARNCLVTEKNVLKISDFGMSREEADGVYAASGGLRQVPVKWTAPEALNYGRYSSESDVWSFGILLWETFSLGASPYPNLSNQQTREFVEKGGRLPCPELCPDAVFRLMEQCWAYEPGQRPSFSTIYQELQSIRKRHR
T22 sequence (Q16288 32-839): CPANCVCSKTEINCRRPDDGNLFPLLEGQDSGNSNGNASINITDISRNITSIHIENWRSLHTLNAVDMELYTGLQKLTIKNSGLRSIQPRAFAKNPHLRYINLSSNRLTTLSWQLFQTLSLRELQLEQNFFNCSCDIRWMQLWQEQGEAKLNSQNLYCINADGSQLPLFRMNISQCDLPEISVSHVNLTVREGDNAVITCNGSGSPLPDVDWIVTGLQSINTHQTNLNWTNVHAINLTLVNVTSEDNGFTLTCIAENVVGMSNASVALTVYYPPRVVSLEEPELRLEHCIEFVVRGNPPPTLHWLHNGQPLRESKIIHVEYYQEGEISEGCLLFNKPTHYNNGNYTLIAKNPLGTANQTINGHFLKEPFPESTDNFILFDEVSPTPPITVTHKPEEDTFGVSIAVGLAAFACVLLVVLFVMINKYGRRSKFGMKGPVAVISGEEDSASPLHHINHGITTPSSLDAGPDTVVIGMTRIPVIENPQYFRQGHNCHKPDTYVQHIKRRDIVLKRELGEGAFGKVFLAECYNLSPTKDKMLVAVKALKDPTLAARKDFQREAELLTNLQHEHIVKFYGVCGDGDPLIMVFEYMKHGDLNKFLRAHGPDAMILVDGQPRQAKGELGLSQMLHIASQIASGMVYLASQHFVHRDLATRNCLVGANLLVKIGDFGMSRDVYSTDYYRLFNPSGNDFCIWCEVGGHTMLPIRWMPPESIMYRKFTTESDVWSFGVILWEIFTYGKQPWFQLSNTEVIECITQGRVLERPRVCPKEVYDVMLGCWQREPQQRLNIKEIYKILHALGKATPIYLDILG
T44 sequence (P57059 whole entry): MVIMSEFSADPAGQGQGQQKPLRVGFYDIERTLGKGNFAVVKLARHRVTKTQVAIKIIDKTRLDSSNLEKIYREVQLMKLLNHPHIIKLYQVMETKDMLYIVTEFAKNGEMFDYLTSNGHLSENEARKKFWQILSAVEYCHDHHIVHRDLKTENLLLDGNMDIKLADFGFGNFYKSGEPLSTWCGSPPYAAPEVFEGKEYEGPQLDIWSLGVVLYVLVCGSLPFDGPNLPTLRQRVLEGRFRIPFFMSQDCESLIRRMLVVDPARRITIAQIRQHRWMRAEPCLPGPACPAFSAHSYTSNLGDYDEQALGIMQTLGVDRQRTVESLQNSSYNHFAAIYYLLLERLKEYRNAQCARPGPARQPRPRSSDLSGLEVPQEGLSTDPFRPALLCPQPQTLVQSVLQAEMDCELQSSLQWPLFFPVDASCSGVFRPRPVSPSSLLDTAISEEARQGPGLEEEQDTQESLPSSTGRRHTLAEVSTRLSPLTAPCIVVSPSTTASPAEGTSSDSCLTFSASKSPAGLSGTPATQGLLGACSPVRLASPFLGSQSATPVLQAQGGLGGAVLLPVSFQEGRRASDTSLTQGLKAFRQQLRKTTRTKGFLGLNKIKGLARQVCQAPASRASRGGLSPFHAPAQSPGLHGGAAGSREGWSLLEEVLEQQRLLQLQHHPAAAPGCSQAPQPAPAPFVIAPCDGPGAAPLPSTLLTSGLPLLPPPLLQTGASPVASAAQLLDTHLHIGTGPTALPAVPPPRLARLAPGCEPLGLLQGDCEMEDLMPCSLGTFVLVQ
T41 sequence (P42684 whole entry): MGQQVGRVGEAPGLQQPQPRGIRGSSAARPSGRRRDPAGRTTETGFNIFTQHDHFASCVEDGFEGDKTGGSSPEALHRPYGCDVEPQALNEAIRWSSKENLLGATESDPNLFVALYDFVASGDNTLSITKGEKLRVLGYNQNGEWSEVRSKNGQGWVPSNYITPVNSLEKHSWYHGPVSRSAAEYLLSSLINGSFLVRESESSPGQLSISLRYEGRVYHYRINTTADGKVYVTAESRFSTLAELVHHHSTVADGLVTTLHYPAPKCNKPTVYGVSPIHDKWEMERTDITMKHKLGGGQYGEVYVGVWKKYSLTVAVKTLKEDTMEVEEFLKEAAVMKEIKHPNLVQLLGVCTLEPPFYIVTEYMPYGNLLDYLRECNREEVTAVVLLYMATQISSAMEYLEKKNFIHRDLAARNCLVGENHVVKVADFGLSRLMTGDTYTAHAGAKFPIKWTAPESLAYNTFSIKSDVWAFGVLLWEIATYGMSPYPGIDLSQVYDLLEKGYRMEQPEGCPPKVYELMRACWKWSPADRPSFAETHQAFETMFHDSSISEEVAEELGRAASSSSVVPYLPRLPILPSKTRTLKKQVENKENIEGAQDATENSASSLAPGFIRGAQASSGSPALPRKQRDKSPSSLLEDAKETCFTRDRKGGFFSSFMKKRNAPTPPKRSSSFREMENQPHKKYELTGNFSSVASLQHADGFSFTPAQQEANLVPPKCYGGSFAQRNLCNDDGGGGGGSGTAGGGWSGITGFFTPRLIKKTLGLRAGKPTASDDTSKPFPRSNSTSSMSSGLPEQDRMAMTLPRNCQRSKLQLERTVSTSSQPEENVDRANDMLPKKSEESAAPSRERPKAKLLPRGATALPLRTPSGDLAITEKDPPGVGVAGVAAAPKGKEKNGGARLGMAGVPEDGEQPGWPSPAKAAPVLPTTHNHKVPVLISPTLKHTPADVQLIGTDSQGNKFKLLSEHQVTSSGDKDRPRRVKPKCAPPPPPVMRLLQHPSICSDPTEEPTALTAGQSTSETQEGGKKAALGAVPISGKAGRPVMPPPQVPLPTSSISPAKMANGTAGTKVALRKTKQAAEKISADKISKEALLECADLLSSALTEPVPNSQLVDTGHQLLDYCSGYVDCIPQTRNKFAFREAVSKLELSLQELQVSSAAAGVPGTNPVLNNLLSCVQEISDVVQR
T30 sequence (Q9Y6M4 whole entry): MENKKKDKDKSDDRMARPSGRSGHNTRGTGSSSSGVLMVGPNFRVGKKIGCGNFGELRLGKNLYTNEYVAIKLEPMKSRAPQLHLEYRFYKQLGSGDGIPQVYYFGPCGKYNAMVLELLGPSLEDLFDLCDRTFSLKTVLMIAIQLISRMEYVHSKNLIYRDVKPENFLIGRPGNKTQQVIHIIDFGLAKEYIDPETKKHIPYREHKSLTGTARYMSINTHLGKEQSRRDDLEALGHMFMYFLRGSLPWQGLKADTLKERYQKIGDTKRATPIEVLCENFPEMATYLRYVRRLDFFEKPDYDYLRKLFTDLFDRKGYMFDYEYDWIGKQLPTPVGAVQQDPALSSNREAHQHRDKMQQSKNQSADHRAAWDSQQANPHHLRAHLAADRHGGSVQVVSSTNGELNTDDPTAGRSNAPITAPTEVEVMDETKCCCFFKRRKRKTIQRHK
T1 sequence (Q9P0L2 whole entry): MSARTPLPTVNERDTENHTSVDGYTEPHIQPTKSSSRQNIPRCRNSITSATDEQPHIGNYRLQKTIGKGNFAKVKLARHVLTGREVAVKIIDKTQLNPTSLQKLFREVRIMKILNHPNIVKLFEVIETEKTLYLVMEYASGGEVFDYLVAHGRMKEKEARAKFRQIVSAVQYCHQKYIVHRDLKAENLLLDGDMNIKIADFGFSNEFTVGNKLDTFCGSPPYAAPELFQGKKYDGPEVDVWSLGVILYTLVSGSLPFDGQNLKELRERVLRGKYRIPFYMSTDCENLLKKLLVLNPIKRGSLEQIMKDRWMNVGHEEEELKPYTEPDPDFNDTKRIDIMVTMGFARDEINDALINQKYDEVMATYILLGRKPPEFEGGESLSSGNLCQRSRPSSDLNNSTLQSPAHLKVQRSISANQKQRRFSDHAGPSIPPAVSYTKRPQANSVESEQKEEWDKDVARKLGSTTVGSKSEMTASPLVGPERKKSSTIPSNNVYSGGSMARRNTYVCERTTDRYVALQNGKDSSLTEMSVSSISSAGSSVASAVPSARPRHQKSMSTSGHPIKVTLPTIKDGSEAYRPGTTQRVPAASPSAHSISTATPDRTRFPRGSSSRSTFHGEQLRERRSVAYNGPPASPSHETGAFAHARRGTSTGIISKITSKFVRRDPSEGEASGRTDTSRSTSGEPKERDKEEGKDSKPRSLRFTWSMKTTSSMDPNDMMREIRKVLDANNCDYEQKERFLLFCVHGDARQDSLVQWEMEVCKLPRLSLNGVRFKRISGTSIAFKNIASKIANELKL

With COc1ccc(/C=C2\SC(=S)NC2=O)cc1C#C[Si](C)(C)C [FINDY] as the compound, how does the inhibition at 10 µM (MARK1) read?
Its inhibition at 10 µM is 46.7%.

And the inhibition at 10 µM (MNK2)?
Its inhibition at 10 µM is 8.3%.

What about the inhibition at 10 µM (EPHA2) of the same compound?
The inhibition at 10 µM was 16.3%.

And the inhibition at 10 µM (Erk2)?
The inhibition at 10 µM was 36.4%.

And the inhibition at 10 µM (MAP2K6_Cascade)?
The inhibition at 10 µM was 23.5%.

And the inhibition at 10 µM (MAP2K2_Cascade)?
The inhibition at 10 µM was 38.8%.

And the inhibition at 10 µM (ACK)?
Its inhibition at 10 µM is -2.2%.

What about the inhibition at 10 µM (IRR) of the same compound?
Its inhibition at 10 µM is 3%.

What about the inhibition at 10 µM (TRKB) of the same compound?
The inhibition at 10 µM was 4.9%.

And the inhibition at 10 µM (FER)?
Its inhibition at 10 µM is 14.3%.

And the inhibition at 10 µM (PDGFRβ)?
Its inhibition at 10 µM is 8.2%.

And the inhibition at 10 µM (PDK1)?
The inhibition at 10 µM was -2.6%.

What about the inhibition at 10 µM (Erk1) of the same compound?
Its inhibition at 10 µM is 33.8%.

And the inhibition at 10 µM (EGFR)?
The inhibition at 10 µM was -5.1%.

And the inhibition at 10 µM (FES)?
The inhibition at 10 µM was 1.6%.

And the inhibition at 10 µM (SRM)?
Its inhibition at 10 µM is 32.9%.

And the inhibition at 10 µM (MAPKAPK2)?
The inhibition at 10 µM was 51.9%.

What about the inhibition at 10 µM (MAP2K1_Cascade) of the same compound?
Its inhibition at 10 µM is 44.2%.

What about the inhibition at 10 µM (PKCη) of the same compound?
Its inhibition at 10 µM is -12.7%.

What about the inhibition at 10 µM (CDC7/ASK) of the same compound?
Its inhibition at 10 µM is 14.1%.

What about the inhibition at 10 µM (PDHK2) of the same compound?
The inhibition at 10 µM was 14.1%.

What about the inhibition at 10 µM (TRKC) of the same compound?
Its inhibition at 10 µM is 11.8%.

And the inhibition at 10 µM (PKCβ1)?
The inhibition at 10 µM was 3.5%.

What about the inhibition at 10 µM (FMS) of the same compound?
Its inhibition at 10 µM is 6.8%.

And the inhibition at 10 µM (PKCδ)?
The inhibition at 10 µM was -1.3%.

And the inhibition at 10 µM (SGK)?
Its inhibition at 10 µM is 27.8%.

What about the inhibition at 10 µM (JAK3) of the same compound?
Its inhibition at 10 µM is 8.2%.

What about the inhibition at 10 µM (MER) of the same compound?
Its inhibition at 10 µM is 3.4%.

What about the inhibition at 10 µM (AurA) of the same compound?
Its inhibition at 10 µM is 58.7%.

And the inhibition at 10 µM (CK1γ3)?
The inhibition at 10 µM was 15.9%.

What about the inhibition at 10 µM (NEK7) of the same compound?
Its inhibition at 10 µM is -12.3%.

What about the inhibition at 10 µM (PKR) of the same compound?
Its inhibition at 10 µM is 5.8%.

What about the inhibition at 10 µM (MOS_Cascade) of the same compound?
The inhibition at 10 µM was 60.1%.

And the inhibition at 10 µM (KDR)?
Its inhibition at 10 µM is 1.6%.

And the inhibition at 10 µM (JNK1)?
The inhibition at 10 µM was 1.5%.

What about the inhibition at 10 µM (JNK2) of the same compound?
The inhibition at 10 µM was 0.4%.

What about the inhibition at 10 µM (MSK1) of the same compound?
The inhibition at 10 µM was 3.8%.

And the inhibition at 10 µM (CaMK1α)?
The inhibition at 10 µM was -4.1%.

What about the inhibition at 10 µM (MSK2) of the same compound?
Its inhibition at 10 µM is 20.8%.

And the inhibition at 10 µM (CDK2/CycE1)?
Its inhibition at 10 µM is 64.9%.

And the inhibition at 10 µM (ARG)?
Its inhibition at 10 µM is 15.2%.

What about the inhibition at 10 µM (MAP2K5_Cascade) of the same compound?
Its inhibition at 10 µM is -0.1%.

What about the inhibition at 10 µM (IKKα) of the same compound?
Its inhibition at 10 µM is 4.9%.

And the inhibition at 10 µM (SIK)?
Its inhibition at 10 µM is 15%.

And the inhibition at 10 µM (QIK)?
Its inhibition at 10 µM is -7.7%.
